Measurements published in patent US20260234165A1, “MACROCYCLIC COMPOUNDS, PREPARATION METHOD THEREFOR, AND USE THEREOF” (GENFLEET THERAPEUTICS (SHANGHAI) INC., priority 2004, published 2026).

Columns and labels:
[1] = Pharmacokinetic study in rats; assay type: in vivo, Sprague-Dawley (SD) rats; settings: Sprague-Dawley, rat, plasma, male SD rats
Text: A total of 6 healthy adult male Sprague-Dawley (SD) rats were provided by Zhejiang Vital River Laboratory Animal Technology Co., Ltd. For each test compound, 6 healthy adult male SD rats were selected and randomly divided into 2 groups: an intravenous administration (IV) group and an intragastric administration (PO) group. The LC-MS/MS method was used to determine the drug concentrations in the plasma of rats at different time points after intravenous and intragastric administration of the test compounds. This experiment was intended to investigate the pharmacokinetic performance of the test compounds in rats and to evaluate the pharmacokinetic characteristics. Each drug used in the experiment was prepared from the test compound powder: An appropriate amount of test compound powder was weighed out, and appropriate amounts of DMSO, a 10% aqueous Solutol HS 15 solution, and a 6% aqueous HP-β-CD solution were sequentially added according to a volume ratio of 5:10:85. The mixture was vortexed and sonicated until clarification. The final concentration of the drug in the IV group was 0.5 mg/mL, and the final concentration of the drug in the PO group was 1 mg/mL; the concentrations could be adjusted according to actual needs. For the drug in the PO group of Z504, an appropriate amount of test compound powder was weighed out, and an appropriate amount of 0.5% MC+0.2% Tween 80 aqueous solution was added. The mixture was well mixed by vortexing to give a 1 mg/mL homogeneous suspension: the concentration could be adjusted according to actual needs.
All experimental rats were fasted overnight, and food intake was resumed 4 h after administration. For the rats in the IV group, the administration volume was set at 2 mL/kg, with Z554 and Z915 administered at a dose of 0.5 mg/kg and the other compounds at a dose of 1 mg/kg. For the rats in the PO group, the administration volume was 10 mL/kg and the dose was 10 mg/kg. The administration amount was adjusted according to the body weight of the rats on the day of administration. In the experiment, blood samples were collected from the rats in the IV group at multiple time points (0.0833 h, 0.25 h, 0.5 h, 1 h, 2 h, 4 h, 7 h, and 24 h) after administration, while blood samples were collected from the PO group at 0.25 h, 0.5 h, 1 h, 2 h, 4 h, 7 h, and 24 h after administration, with approximately 100 μL collected each time via the orbital blood collection method.
The blood samples were placed in centrifuge tubes containing EDTA-K2 and centrifuged at 8000 rpm for 4 min within 30 min to separate the supernatant plasma. The resulting plasma samples were stored at −20° C. for later use. For sample analysis, 20 μL of each of plasma samples and calibration standards was added to a 96-well plate, and 160 μL of acetonitrile containing 100 ng/mL tolbutamide was added. The samples were vortexed for 5 min for uniform mixing, and then centrifuged at 4000 rpm for 15 min. After the centrifugation was completed, 50 μL of supernatant was added to a 96-well plate containing 150 μL of deionized water. The plate was then sealed and shaken for uniform mixing. Sample analysis was performed by LC-MS/MS.
The sampling volume could be adjusted according to actual needs, but the final concentration should be kept unchanged.

[2] = Assay for stability in liver microsomes; assay type: in vitro ADME; settings: human liver microsomes
Experimental: This experiment was intended to investigate the metabolic stability of the test compounds in human liver microsomes. The materials used in the experiment included 10 mM solutions of the test compounds and the control sample, human liver microsomes, and reduced nicotinamide adenine dinucleotide phosphate (NADPH) powder. In the experiment, a 100 mM potassium phosphate buffer was used as the buffer system.
The liver microsome working solution was prepared by diluting the liver microsome stock solution to 0.75 mg/mL using the 100 mM potassium phosphate buffer. Then, 5 μL of the 10 mM stock solution of the test compound was taken, and 195 μL of methanol was added. The mixture was well mixed to prepare a working solution A with a concentration of 0.25 mM.
Subsequently, the working solution A was diluted to 1.5 μM using the liver microsome working solution to prepare a compound-liver microsome mixed solution. Additionally, NADPH powder was dissolved in a 100) mM potassium phosphate buffer to prepare a 6 mM NADPH solution. The compound-liver microsome mixed solution was dispensed into a 96-well plate at 30 μL/well, with labeled time points of 0 min, 30 min, and 60 min. For 0-min samples, 180 μL of acetonitrile containing 100 ng/mL tolbutamide and 15 μL of the NADPH solution were added directly. The 96-well plate and the NADPH solution were then preheated under a 37° C. water bath for 5 min. After the preheating, 15 μL of the NADPH solution was added to each of the 30-min and 60-min sample wells. The plate was gently shaken for mixing and then incubated under the 37° C. water bath for the corresponding time. After the incubation was completed. 180 μL of acetonitrile containing 100 ng/mL tolbutamide was added to each sample well. The plate was sealed with a sealing film, shaken for 10 min (800 rpm/min), and then centrifuged for 15 min (4000 rpm). After the centrifugation, 50 μL of the supernatant was taken and added to a 96-well plate containing 150 μL of deionized water, and then the plate was sealed and shaken for 10 min (800 rpm) for uniform mixing. Subsequently sample analysis was performed using liquid chromatography-tandem mass spectrometry (LC-MS/MS).
The elimination rate constant and clearance rate of the test compound in liver microsomes were calculated using the following formulas: Remaining rate (%)=(peak area ratio of the compound to internal standard at any time point/peak area ratio of the compound to internal standard at 0 min)×100%,^4. T1/2=0.693/ke, where ke is the elimination rate constant and T1/2 is the half-life. Liver microsome intrinsic clearance rate (CLint(mic))=0.693/(T1/2× microsome protein concentration (mg/mL)). Liver intrinsic clearance rate (CLint(liver))=CLint(mic)×microsome protein-to-liver weight ratio (mg/g)×liver-to-body weight ratio (g/kg). In the formulas, CLint(mic) is the liver microsome intrinsic clearance rate, CLint(liver) is the liver intrinsic clearance rate, and CL(liver) is the liver clearance rate. For humans, the microsome protein-to-liver weight ratio was 45 mg/g, and the liver-to-body weight ratio was 20.7 g/kg.

CCn1c(-c2cc(N3CCN(C)CC3)cnc2[C@H](C)OC)c2c3cc(ccc31)-c1csc(n1)C[C@H](NC(=O)[C@H]1[C@H](C)[C@@H]1C)C(=O)N1CCC[C@H](N1)C(=O)OCC(C)(C)C2 (atropisomer, axis not shown; (Ra)) [Control compound 1, (1r,2R,3S)—N-((6^3S,Z)-1^1-ethyl-(Ra)-1^2-(2-((S)-1-methoxyethyl)-5-(4-methylpiperazin-1-yl)pyridin-3-yl)-10,10-dimethyl-5,7-dioxo-6^1,6^2,6^3,6^4,6^5,6^6-hexahydro-1^1H-8-oxa-2(4,2)-thiazola-1(5,3)-indola-6(1,3)-pyridazinacycloundecaphane-4-yl)-2,3-dimethylcyclopropane-1-carboxamide, reference compound]
clearance ([1]; IV, dose 1 mg/kg): 42.8 mL/min/kg
AUC ([1]; PO (intragastric), dose 10 mg/kg, read-out: AUC): 1220 ng·h/mL
Cmax ([1]; PO (intragastric), dose 10 mg/kg, read-out: Cmax): 365 ng/mL
half-life at 1 µM ([2]; NADPH, 37° C., 0/30/60 min): 11.8 min
CLint scaled at 1 µM ([2]; liver intrinsic clearance rate): 136 mL/min/kg
